# Like-named read-outs stand apart in the source and are kept apart here.
# Key:
# PTP1B = target: T1, PTP1B (Homo sapiens, UniProt P18031); test: Phosphotyrosine phosphatase PTP1B inhibition; format: biochemical
# T1 construct: purchased Upstate Biotechnology, Lake Placid, N.Y
# T1 sequence (P18031 1-435): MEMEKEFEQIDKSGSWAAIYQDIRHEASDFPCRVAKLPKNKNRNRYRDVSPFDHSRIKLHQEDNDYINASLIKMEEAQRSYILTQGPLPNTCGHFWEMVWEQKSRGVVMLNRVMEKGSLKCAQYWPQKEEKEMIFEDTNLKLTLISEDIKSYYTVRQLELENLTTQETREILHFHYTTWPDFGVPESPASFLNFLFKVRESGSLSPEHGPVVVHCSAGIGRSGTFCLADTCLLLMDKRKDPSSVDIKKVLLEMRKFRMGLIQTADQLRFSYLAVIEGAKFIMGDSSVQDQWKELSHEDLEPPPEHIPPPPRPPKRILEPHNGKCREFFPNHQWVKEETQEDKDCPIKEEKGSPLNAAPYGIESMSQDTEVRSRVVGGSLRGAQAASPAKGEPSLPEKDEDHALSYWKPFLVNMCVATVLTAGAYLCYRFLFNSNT
# CEM = test: Anti-phosphotyrosine immunoblot; format: cell-based, human; details: 16 hr
# [1] = test system: mixed lymphocyte response cultures dependent on CD28 costimulation; test: Mixed lymphocyte response cultures; format: cell-based; details: 0.5 to 5 μM BMLOV
# Method: Mixed lymphocyte response cultures that are dependent on CD28 costimulation were inhibited by over 50% by 0.5 to 5 μM BMLOV (FIG. 8).
# [2] = test system: normal peripheral B cells; test: Normal peripheral B cell [3H]-thymidine incorporation; format: cell-based, human
# Method: In the experiment reported in Table 4, monoclonal antibodies to CD20 and CD40 were used to stimulate proliferation. Peripheral B cells were isolated from two healthy human volunteers. The cells were stimulated as listed in Table 4 and the effects of various doses of BMLOV on proliferation, as measured by [^3 H]-thymidine incorporation, were determined. BMLOV was able to inhibit proliferation induced by CD20, CD40, IL-4 and PMA in the various combinations tested. The cells from donor 2 were more sensitive, indicating some variation among individuals in their sensitivity to the drug.
# Stimulation of CD20 was via monoclonal antibody 1F5 and stimulation of CD40 was via monoclonal antibody G28-5.
# For assays of cellular proliferation, cells were grown five days in the presence of the indicated concentrations of BMLOV, pulsed 6 hr with [^3 H]-thymidine (New England Nuclear, Boston, Mass.), and counted in a liquid scintillation counter. Human peripheral blood lymphocytes (PBL) from normal volunteers were isolated from lymphocyte separation medium (Litton Bionetics, Kensington, Md.) by density gradient centrifugation. Monocytes were depleted from PBL by two rounds of plastic absorption for 30 minutes at 37° C. B cells were enriched for by negative selection using complement plus monoclonal antibodies to CD2, CD3, CD4, and CD8 for complement depletion. Clonogenic assays of colony formation in methylcellulose medium were performed as previously described (F. M. Uckun et al. (1992), supra).
# pp60^c-src = test: pp60c-src kinase activity in colon carcinoma cell lines; format: cell-based; details: two colon carcinoma cell lines expressing Src; dose-dependent
# Description: Many colon carcinomas are known to express the Src oncogene product at high levels.
# [3] = test system: MDAMB-453 breast carcinoma cells; test: Clonogenic assay in methylcellulose; format: cell-based; details: dose as high as 100 μM BMLOV
# Method: The selective cytotoxicity of BMLOV was examined in clonogenic assays. Cells were grown in methylcellulose media and the number of colonies formed after seven days of treatment with various doses of the drug were determined. The clonogenic assays were performed with six replicates for each treatment as described [F. M. Uckun et al., J. Exp. Med. 163:347-368 (1986); F. M. Uckun & J. A. Ledbetter, Proc. Natl. Acad. Sci. USA 85:8603-8607 (1988)). The data is given plus/minus the standard error of the mean.
# Ramos B cells = test: Ca2+ signaling in Ramos B cells; format: cell-based, human
# Method: Ca^2+ responses were measured using indo-1 (Molecular Probes, Eugene, Oreg.) and a model 50 HH/2150 flow cytometer (Ortho, Westwood, Mass.) as previously described (P. S. Rabinovitch et al., J. Immunol. 137:952-961 (1986)). The histograms were analyzed by programs (Cicero, Cytomation Inc., Ft. Collins, Colo.) that calculate the mean indo-1 violet/blue fluorescence ratio versus time. There are 100 data points on the X (time) axis for all flow cytometric data.
# In the experiments shown in FIG. 22, Ramos B cells were treated overnight with the indicated concentrations of BMLOV. The baseline level of intracellular free Ca^2+ ([Ca^2+ ]i) was established for 1 min, and then the cells were treated with anti-human IgM F(ab')2 (α-μ). The gap in the trace reflects the addition of α-μ. An acute Ca^2+ response to the addition of BMLOV to the Ramos cells was not observed, in contrast to the rapid elevation of Ca^2+ observed following treatment with pervanadate or H2 O2 (G. L. Schieven et al., Blood 82:1212-1220 (1993)); G. L. Schieven et al., J. Biol. Chem. 268:16688-16692 (1993)).
# Jurkat = format: cell-based, human
# Description: The extent to which the T cells were being killed by BMLOV treatment relative to the Ramos B cells was therefore examined. […] The percentage of cells in each quadrant is indicated. The lower right quadrant contains the viable cells.
smiles,measurement,setting,value
"Cc1occc(=O)c1[O-].Cc1occc(=O)c1[O-].[O]=[V+2] [BMLOV, Bis(maltolato)oxovanadium (IV)]",IC50,PTP1B,~0.025 µM
same,IC50,"PTP1B; Table 1, phosphorylated myelin basic protein substrate",0.026 µM
same,IC50,PTP1B; Table 8,0.026 µM
same,induction of tyrosine phosphorylation,CEM,only low levels of tyrosine phosphorylation
same,inhibition of mixed lymphocyte response,[1],over 50%
same,[3H]cpm incorporation,"[2]; Donor #1, CD20 + CD40, 1 μM BMLOV",3619 cpm
same,[3H]cpm incorporation,"[2]; Donor #1, CD20 + CD40, 5 μM BMLOV",3644 cpm
same,[3H]cpm incorporation,"[2]; Donor #1, CD20 + CD40, 10 μM BMLOV",3422 cpm
same,[3H]cpm incorporation,"[2]; Donor #1, CD20 + CD40, 25 μM BMLOV",2432 cpm
same,[3H]cpm incorporation,"[2]; Donor #1, CD40 + IL4, 1 μM BMLOV",31966 cpm
same,[3H]cpm incorporation,"[2]; Donor #1, CD40 + IL4, 5 μM BMLOV",33845 cpm
same,[3H]cpm incorporation,"[2]; Donor #1, CD40 + IL4, 10 μM BMLOV",31637 cpm
same,[3H]cpm incorporation,"[2]; Donor #1, CD40 + IL4, 25 μM BMLOV",24933 cpm
same,[3H]cpm incorporation,"[2]; Donor #1, PMA + CD40, 1 μM BMLOV",62643 cpm
same,[3H]cpm incorporation,"[2]; Donor #1, PMA + CD40, 5 μM BMLOV",58418 cpm
same,[3H]cpm incorporation,"[2]; Donor #1, PMA + CD40, 10 μM BMLOV",45330 cpm
same,[3H]cpm incorporation,"[2]; Donor #1, PMA + CD40, 25 μM BMLOV",25536 cpm
same,[3H]cpm incorporation,"[2]; Donor #1, PMA + IL4, 1 μM BMLOV",61415 cpm
same,[3H]cpm incorporation,"[2]; Donor #1, PMA + IL4, 5 μM BMLOV",48724 cpm
same,[3H]cpm incorporation,"[2]; Donor #1, PMA + IL4, 10 μM BMLOV",45278 cpm
same,[3H]cpm incorporation,"[2]; Donor #1, PMA + IL4, 25 μM BMLOV",14277 cpm
same,[3H]cpm incorporation,"[2]; Donor #2, CD20 + CD40, 1 μM BMLOV",4593 cpm
same,[3H]cpm incorporation,"[2]; Donor #2, CD20 + CD40, 5 μM BMLOV",5681 cpm
same,[3H]cpm incorporation,"[2]; Donor #2, CD20 + CD40, 10 μM BMLOV",5269 cpm
same,[3H]cpm incorporation,"[2]; Donor #2, CD20 + CD40, 25 μM BMLOV",856 cpm
same,[3H]cpm incorporation,"[2]; Donor #2, CD40 + IL4, 1 μM BMLOV",16597 cpm
same,[3H]cpm incorporation,"[2]; Donor #2, CD40 + IL4, 5 μM BMLOV",18824 cpm
same,[3H]cpm incorporation,"[2]; Donor #2, CD40 + IL4, 10 μM BMLOV",12662 cpm
same,[3H]cpm incorporation,"[2]; Donor #2, CD40 + IL4, 25 μM BMLOV",6013 cpm
same,[3H]cpm incorporation,"[2]; Donor #2, PMA + CD40, 1 μM BMLOV",49102 cpm
same,[3H]cpm incorporation,"[2]; Donor #2, PMA + CD40, 5 μM BMLOV",47624 cpm
same,[3H]cpm incorporation,"[2]; Donor #2, PMA + CD40, 10 μM BMLOV",29024 cpm
same,[3H]cpm incorporation,"[2]; Donor #2, PMA + CD40, 25 μM BMLOV",15671 cpm
same,[3H]cpm incorporation,"[2]; Donor #2, PMA + IL4, 1 μM BMLOV",53642 cpm
same,[3H]cpm incorporation,"[2]; Donor #2, PMA + IL4, 5 μM BMLOV",41892 cpm
same,[3H]cpm incorporation,"[2]; Donor #2, PMA + IL4, 10 μM BMLOV",20313 cpm
same,[3H]cpm incorporation,"[2]; Donor #2, PMA + IL4, 25 μM BMLOV",2730 cpm
same,pp60c-src activity,pp60^c-src,strongly inhibited
same,inhibition of clonogenic growth,[3],inhibited only moderately
same,Ca2+ signals induced by cross-linking sIgM,"Ramos B cells; 25 μM BMLOV, overnight",Complete inhibition
same,UV-induced Ca2+ signals,Ramos B cells; Ramos B cells,greatly increased and prolonged UV-induced Ca^2+ signals
same,basal Ca2+ levels,"Ramos B cells; Ramos B cells, BMLOV 16 h",elevation of basal Ca^2+ levels
"[Na+].[O]=[V-]12([O][O]1)[O][O]2.c1cnc2c(c1)ccc1cccnc12 [pV(phen), sodium (1,10-phenanthroline) oxodiperoxovanadium (V)]",cells killed,"Jurkat; Jurkat, 10 μM pV(phen), three days",all the cells
same,cells killed,"Jurkat; human, jurkat cells, 48 h, 10 µM",98%

# — US5877210A, “Phosphotyrosine phosphatase inhibitors or phosphotyrosine kinase activators for controlling cellular proliferation” (priority 1995, dated 1999)
